Assay results reported in patent US6458872B1, “Benzotriazole UV absorbers having enhanced durability” (Ciba Specialty Chemicals Corporation, priority 1997, dated 2002).

Tests used:
Format in all cases: physicochemical
[1] = Durability in solvent cast polycarbonate film, Atlas C165 Xenon-arc, ASTM G26 (Example 80); settings: for % Loss / Absorbance (max) Loss units: 1100 hrs
Method: (§1) The durability of representative benzotriazoles in thermoplastic substrates is determined by incorporating various test compounds into solvent cast films of poly(vinyl chloride), polycarbonate and polystyrene resins. The free standing films are mounted into cardboard holders, secured in metal frames and exposed in an Atlas C165 Xenon-arc Weather-Ometer under dry conditions according to ASTM G26 for 1100 and 2200 hour exposure. Loss of UV absorber is determined by monitoring the loss of diagnostic UV absorption as described earlier. Performance is measured by a change in color or the physical integrity of the film.
Polycarbonate flake (LEXAN® 145, General Electric) is dissolved in methylene chloride at room temperature along with between 1 and 3% by weight of test benzotriazole, based on the polycarbonate. Films are cast using a calibrated drawdown bar to prepare 1 mil thick film after drying.

[2] = Durability in solvent cast PVC films, Atlas C165 Weather-Ometer (Example 83); settings: PVC film; for % Loss / Absorbance (max) Loss units: 1100 hrs
Method: as §1
PVC films of GEON® 27 (Geon Co.) are solvent cast as described above with warm tetrahydrofuran (THF) and exposed in an Atlas C165 Weather-Ometer as described in Example 60 for 1100 hours.

[3] = UV absorption data (Example 74); settings: 20 mg/l concentrations; not the molar extinction values
Method: In the following examples the absorbance at 375 nm is reported for 20 mg/l concentrations. This is not the molar extinction values.

[4] = Yellowness color of solutions in butyl acetate, Macbeth Color-Eye (Example 75); settings: 30 mg/100 mL in butyl acetate; for DE: corresponding Yellowness Index value; for b: yellowness, Macbeth Color-Eye
Method: The following examples show the difference in color between some of the instant compounds as measured by a Macbeth Color-Eye instrument at a concentration of 30 mg/100 mL in butyl acetate. […] In the table, the compounds are listed by increasing b value. The instrument measures yellowness as b and DE is the corresponding Yellowness Index value.

[5] = UV absorption data (Example 74); design: ε @ λ max: unit not given beside the values
[6] = Loss of UV absorber from high solids thermoset acrylic clear coat, Xenon Arc Weather-Ometer (Example 77); settings: after 1211 hours Xenon arc exposure; clear coat with 1% hindered amine; UV absorber at 5 mmol % by weight
Method: To ascertain the effect on thermal durability and loss rate from a high solids thermoset acrylic coating of various 2H-benzotriazole UV absorbers substituted by a variety of electron withdrawing and electron donating groups, the following tests are carried out.
A high solids thermoset acrylic clear coat is prepared by mixing an experimental acrylic polyol resin and hexamethoxymethylmelamine (Resimene® 747, Monsanto) at a solids ratio of 60/40. The dodecylbenzene sulfonic acid catalyst (Nacure® 5225; King Industries) is added at 0.70% by weight. A flow aid Modaflow® (Monsanto) is added at 0.25% by weight to form a model acrylic melamine resin system.
The model clear coat is reduced with xylene to a viscosity of 26-27 second using a Zahn #2 cup and applied via a conventional air spray at 50 psi (3.5 Kg/cm^2) over a 1″×3″ (2.54 cm×7.62 cm) quartz slide. Cure is achieved by baking the slide for 30 minutes at 260° F. (127° C.). The clear coat is stabilized with 1% by weight of a hindered amine light stabilizer, bis-(1-octyloxy-2,2,6,6-tetramethylpiperidin-4-yl)sebacate, (TINUVIN® 123, Ciba-Geigy). The various test benzotriazole UV absorbers are incorporated at the 5 mmol % by weight in the clear coat. The film thickness on the quartz slides range from 1.15 to 1.41 mils (0.029 to 0.036 mm).
The films on the quartz slides are weathered according to the following conditions in Xenon Arc Weather-Ometer with a controlled irradiance at 6500 W, using inner quartz and outer borosilicate S-type filter. The irradiation cycle is as follows: 40 minutes of straight irradiation with no water spray, followed by 20 minutes of light plus front spray, followed by 60 minutes of light irradiation and finally by 60 minutes dart plus rear spray (condensation). The setting is at 0.55 W/M^2 at 340 nm, 1.98 kJ/hour. In the light cycle the black panel temperature is controlled at 70±2° C. The relative humidity in the light cycle is in the range of 50-55% and in the dark cycle 100%. The absorbance of the long wavelength UV band as a function of Xenon arc weathering hours are recorded in the table below.
To follow the loss of UV absorbers from the clear coats, UV spectra are measured initially and after weathering at regular time intervals. The UV spectrophotometer measures absorbance linearly up to 5.5 absorbance units using a reference beam attenuation technique.
This is tested by following the ratio of absorbance of the band at about 300 nm and the band at about 340 nm.
The data in the table below are based on formula A after 1211 hours of exposure of the clear coats containing the test benzotriazole UV absorbers.

[7] = Loss of UV absorber from high solids thermoset acrylic melamine clear coat, Xenon-Arc X180 cycle (Example 78); settings: for durability (low loss rate absorbance values after exposure): in words, summary of the tables of Example 78
Excerpt: Following the general procedure of Example 77, a number of additional benzotriazole test compounds are incorporated into a high solids thermoset acrylic melamine resin at such concentrations between 1.93 and 3% by weight to give equal molar concentrations of test benzotriazole in equal film thickness, and sufficient to give a starting absorbance of approximately 2.0 absorbance units.
The test discs are exposed in a Xenon-Arc Weather-Ometer at X180 cycle (0.45 Watts/M^2). The initial UV absorbance is measured followed by measurements at roughly 250 hour intervals for the first 2000 hours and every 500 hours thereafter. Each clear coat also contains 1% by weight of a hindered amine light stabilizer, bis-(1-octyloxy-2,2,6,6-tetramethylpiperidin-4-yl) sebacate, as well.

[8] = after 1253 hours of exposure, starting absorbance approximately 2.0, 1% hindered amine

CCCCCCCCCS(=O)(=O)c1ccc2nn(-c3cc(C(C)(C)CC(C)(C)C)cc(C(C)(C)c4ccccc4)c3O)nc2c1 [AA, 5-nonylsulfonyl-2-(2-hydroxy-3-α-cumyl-5-tert-octylphenyl)-2H-benzotriazole]
Absorbance (max) 1100 hrs ([1]; 2.5 wt %): 1.300
% Loss ([1]; 2.5 wt %): 2.5%
Absorbance (max) Loss units ([1]; 2.5 wt %): 0.033
Absorbance (max) 0 hrs ([1]; 2.5 wt %, AA at 364 nm): 1.333
Absorbance (max) 1100 hrs ([2]; 2.5 wt %): 1.103
% Loss ([2]; 2.5 wt %): 3.1%
Absorbance (max) Loss units ([2]; 2.5 wt %): 0.036
Absorbance (max) 0 hrs ([2]; 2.5 wt %, AA at 368 nm): 1.149

CCCCS(=O)(=O)c1ccc2nn(-c3cc(C(C)(C)CC(C)(C)C)cc(C(C)(C)c4ccccc4)c3O)nc2c1 [CC, 5-butylsulfonyl-2-(2-hydroxy-3-α-cumyl-5-tert-octylphenyl)-2H-benzotriazole]
Absorbance @ 375 nm [3]: 0.42
DE [4]: 3.35
b [4]: 2.84
ε @ λ max [5]: 14,100
λ max nm [5]: 359 nm

CC(C)(C)CC(C)(C)c1ccc(O)c(-n2nc3ccccc3n2)c1 [Compound A, 2-(2-hydroxy-5-tert-octylphenyl)-2H-benzotriazole]
Units Absorbance Loss [6]: 1.7982

CC(C)(C)CC(C)(C)c1cc(Cc2cc(C(C)(C)CC(C)(C)C)cc(-n3nc4ccccc4n3)c2O)c(O)c(-n2nc3ccccc3n2)c1 [Compound B, 2,2′-Methylene-bis[6-(2H-benzotriazol-2-yl)-4-tert-octylphenol]]
Units Absorbance Loss [6]: 1.6300

CC(C)(C)c1cc(CCCO)cc(-n2nc3ccccc3n2)c1O [Compound L]
Units Absorbance Loss [6]: 0.3712

CC(C)(c1ccccc1)c1cc(-n2nc3ccccc3n2)c(O)c(C(C)(C)c2ccccc2)c1 [Compound P, 2-(2-hydroxy-3,5-di-α-cumylphenyl)-2H-benzotriazole]
Units Absorbance Loss [6]: 0.2576
Absorbance (max) 1100 hrs ([1]; 1.5 wt %): 0.919
% Loss ([1]; 1.5 wt %): 13.5%
Absorbance (max) Loss units ([1]; 1.5 wt %): 0.143
Absorbance (max) 0 hrs ([1]; 1.5 wt %, P at 347 nm): 1.062
Absorbance (max) 1100 hrs ([1]; 2.5 wt %): 1.844
% Loss ([1]; 2.5 wt %): 12.3%
Absorbance (max) Loss units ([1]; 2.5 wt %): 0.260
Absorbance (max) 0 hrs ([1]; 2.5 wt %, AA at 364 nm): 2.104
Absorbance (max) 1100 hrs ([2]; 1.5 wt %): 1.022
% Loss ([2]; 1.5 wt %): 10.7%
Absorbance (max) Loss units ([2]; 1.5 wt %): 0.123
Absorbance (max) 0 hrs ([2]; 1.5 wt %, P at 347 nm): 1.145
Absorbance (max) 1100 hrs ([2]; 2.5 wt %): 2.081
% Loss ([2]; 2.5 wt %): 5.6%
Absorbance (max) Loss units ([2]; 2.5 wt %): 0.130
Absorbance (max) 0 hrs ([2]; 2.5 wt %, AA at 368 nm): 2.211

CC(C)(C)CC(C)(C)c1cc(-n2nc3ccc(S(=O)(=O)c4ccccc4)cc3n2)c(O)c(C(C)(C)c2ccccc2)c1 [Compound U, 5-phenylsulfonyl-2-(2-hydroxy-3-α-cumyl-5-tert-octylphenyl)-2H-benzotriazole]
Absorbance @ 375 nm [3]: 0.50
DE [4]: 4.42
b [4]: 3.75
Units Absorbance Loss ([7]; after 1264 hours of exposure): 0.0944
Units Absorbance Loss ([7]; after 1518 hours of exposure): 0.1114
durability (low loss rate absorbance values after exposure) [7]: especially durable
ε @ λ max [5]: 17,300
λ max nm [5]: 362 nm

COC(=O)c1ccc2nn(-c3cc(C(C)(C)CC(C)(C)C)cc(C(C)(C)c4ccccc4)c3O)nc2c1 [DD, 5-carbomethoxy-2-(2-hydroxy-3-α-cumyl-5-tert-octylphenyl)-2H-benzotriazole]
Absorbance @ 375 nm [3]: 0.42
DE [4]: 2.25
b [4]: 1.85
ε @ λ max [5]: 15,700
λ max nm [5]: 358 nm

COC(=O)CCc1ccc(O)c(-n2nc3ccccc3n2)c1 [D]
Units Absorbance Loss [6]: 1.4002

COc1ccc2nn(-c3cc(C)cc(C(C)(C)C)c3O)nc2c1 [E]
Units Absorbance Loss [6]: 1.1872

CC(C)CCCCCOC(=O)CCc1cc(-n2nc3ccc(C(F)(F)F)cc3n2)c(O)c(C(C)(C)C)c1 [FF, isooctyl 3-(5-trifluoromethyl-2H-benzotriazol-2-yl)-5-tert-butyl-4-hydroxyhydro-cinnamate]
DE [4]: 0.72
b [4]: 0.54

COC(=O)CCc1cc(-n2nc3ccccc3n2)c(O)c(C(C)(C)C)c1 [F]
Units Absorbance Loss [6]: 0.5259

CC(C)(c1ccccc1)c1ccc(O)c(-n2nc3ccccc3n2)c1 [G]
Units Absorbance Loss [6]: 0.4527

CC(C)(C)CC(C)(C)c1cc(C(C)(C)c2ccccc2)cc(-n2nc3ccccc3n2)c1O [I]
Units Absorbance Loss [6]: 0.4299

CC(C)(C)CC(C)(C)c1cc(-n2nc3ccccc3n2)c(O)c(C(C)(C)CC(C)(C)C)c1 [K]
Units Absorbance Loss [6]: 0.3777

COC(=O)CCc1cc(-n2nc3ccccc3n2)c(O)c(C(C)(C)c2ccccc2)c1 [M]
Units Absorbance Loss [6]: 0.3433

CC(C)(C)c1cc(-n2nc3ccc(C#N)cc3n2)c(O)c(C(C)(C)C)c1 [N]
Units Absorbance Loss [6]: 0.3098

CC(C)(c1ccccc1)c1cc(-c2ccccc2)c(O)c(-n2nc3ccccc3n2)c1 [R]
Units Absorbance Loss [7, 8]: 0.2424
Units Absorbance Loss ([7]; after 1489 hours of exposure): 0.3724
Units Absorbance Loss ([7]; after 2521 hours of exposure): 0.4824

CC(C)(C)c1cc(-n2nc3ccc(S(=O)(=O)c4ccccc4)cc3n2)c(O)c(C(C)(C)C)c1 [T]
Units Absorbance Loss [7, 8]: 0.1827
Units Absorbance Loss ([7]; after 1264 hours of exposure): 0.1965
Units Absorbance Loss ([7]; after 1489 hours of exposure): 0.2654
Units Absorbance Loss ([7]; after 1518 hours of exposure): 0.2423
Units Absorbance Loss ([7]; after 2521 hours of exposure): 0.3570
durability (low loss rate absorbance values after exposure) [7]: significantly more durable

CC(C)(C)CC(C)(C)c1cc(-n2nc3ccc(Cl)cc3n2)c(O)c(C(C)(C)c2ccccc2)c1 [V, 5-Chloro-2-(2-hydroxy-3-α-cumyl-5-tert-octylphenyl)-2H-benzotriazole]
Units Absorbance Loss ([7]; after 1264 hours of exposure): 0.1719
Units Absorbance Loss ([7]; after 1518 hours of exposure): 0.1955
durability (low loss rate absorbance values after exposure) [7]: especially durable

CC(C)(C)CC(C)(C)c1cc(-n2nc3ccc(F)cc3n2)c(O)c(C(C)(C)c2ccccc2)c1 [W, 5-Fluoro-2-(2-hydroxy-3-α-cumyl-5-tert-octylphenyl)-2H-benzotriazole]
Units Absorbance Loss ([7]; after 1264 hours of exposure): 0.1655
Units Absorbance Loss ([7]; after 1518 hours of exposure): 0.1668
durability (low loss rate absorbance values after exposure) [7]: especially durable

CC(C)(C)CC(C)(C)c1cc(-c2ccccc2)c(O)c(-n2nc3ccccc3n2)c1 [X]
Units Absorbance Loss ([7]; after 1264 hours of exposure): 0.1796
Units Absorbance Loss ([7]; after 1518 hours of exposure): 0.2220
